The text below walks through data of patent US11555032B2, “Isoxazole derivatives as FXR agonists and methods of use thereof” (Enanta Pharmaceuticals, Inc., priority 2019, dated 2023).

This assay has as its target T1, human FXR (NR1H4) (Homo sapiens, UniProt Q96RI1).
T1 construct: host or cells: CHO (Chinese hamster ovary) reporter cells
T1 sequence (Q96RI1 1-486): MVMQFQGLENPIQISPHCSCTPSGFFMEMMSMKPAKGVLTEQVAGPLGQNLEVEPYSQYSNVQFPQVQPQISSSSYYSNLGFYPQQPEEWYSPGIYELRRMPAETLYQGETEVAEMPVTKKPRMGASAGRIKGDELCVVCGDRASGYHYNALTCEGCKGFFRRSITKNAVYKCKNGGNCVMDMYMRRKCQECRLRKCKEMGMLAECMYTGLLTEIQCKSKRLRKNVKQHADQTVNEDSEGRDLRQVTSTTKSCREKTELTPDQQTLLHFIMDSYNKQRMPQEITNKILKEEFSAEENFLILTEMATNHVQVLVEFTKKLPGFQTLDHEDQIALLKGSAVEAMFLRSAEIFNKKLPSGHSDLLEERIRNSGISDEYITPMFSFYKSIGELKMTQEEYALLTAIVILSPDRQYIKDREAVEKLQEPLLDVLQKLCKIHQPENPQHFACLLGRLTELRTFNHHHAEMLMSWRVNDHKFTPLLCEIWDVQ
The assay is described as follows: Human FXR (NRIH4) Assay, luciferase reporter. The conditions noted are these: CHO reporter cells expressing human NR1H4, luciferase, 22 hours incubation. The assay is classed as cell-based. From the text:
Determination of a ligand mediated Gal4 promoter driven transactivation to quantify ligand binding mediated activation of FXR. FXR Reporter Assay kit purchased from Indigo Bioscience (Catalogue number: IB00601) to determine the potency and efficacy of compound developed by Enanta that can induce FXR activation. The principle application of this reporter assay system is to quantify functional activity of human FXR. The assay utilizes non-human mammalian cells, CHO (Chinese hamster ovary) cells engineered to express human NR1H4 protein (referred to as FXR). Reporter cells also incorporate the cDNA encoding beetle luciferase which catalyzes the substrates and yields photon emission. Luminescence intensity of the reaction is quantified using a plate-reading luminometer, Envision. Reporter Cells include the luciferase reporter gene functionally linked to an FXR responsive promoter. Thus, quantifying changes in luciferase expression in the treated reporter cells provides a sensitive surrogate measure of the changes in FXR activity. EC50 and efficacy (normalize to CDCA set as 100%) is determined by XLFit. The assay is according to the manufacturer's instructions. In brief, the assay was performed in white, 96 well plates using final volume of 100 ul containing cells with different doses of compounds. Retrieve Reporter Cells from −80° C. storage. Perform a rapid thaw of the frozen cells by transferring a 10 ml volume of 37° C. cell recovery medium into the tube of frozen cells. Recap the tube of Reporter Cells and immediately place it in a 37° C. water bath for 5-10 minutes. Retrieve the tube of Reporter Cell Suspension from the water bath. Sanitize the outside surface of the tube with a 70% alcohol swab, and then transfer it into the cell culture hood. Dispense 90 μl of cell suspension into each well of the 96-well Assay Plate. Transfer the plate into 37° C. incubator, allowing the cells adherent to the bottom of the well. Dilute compounds in Dilution Plate (DP), and administrate to cells at Assay Plate (AP). DMSO content of the samples was kept at 0.2%. Cells were incubated for additional 22 hours before luciferase activities were measured. Thirty minutes before intending to quantify FXR activity, remove Detection Substrate and Detection Buffer from the refrigerator and place them in a low-light area so that they may equilibrate to room temperature. Remove the plate's lid and discard all media contents by ejecting it into an appropriate waste container. Gently tap the inverted plate onto a clean absorbent paper towel to remove residual droplets. Cells will remain tightly adhered to well bottoms. Add 100 μl of luciferase detection reagent to each well of the assay plate. Allow the assay plate to rest at room temperature for at least 5 minutes following the addition of LDR. Set the instrument (Envision) to perform a single 5 second “plate shake” prior to reading the first assay well. Read time may be 0.5 second (500 mSec) per well. EC50 and Efficacy (normalize to CDCA set as 100%) is determined by XLFit.
The efficacy was normalized to CDCA set as 100%.

Molecule `NS(=O)(=O)c1ccc2nc(NC3C4CCC3CC(OCc3c(-c5ccccc5OC(F)(F)F)noc3C3CC3)C4)sc2c1` [Example 8, 2-(((1R,3r,5S,8s)-3-((5-cyclopropyl-3-(2-(trifluoromethoxy)phenyl)isoxazol-4-yl)methoxy)bicyclo[3.2.1]octan-8-yl)amino)benzo[d]thiazole-6-sulfonamide] displayed an EC50 of 25 to 500 nM.

Take `NS(=O)(=O)c1ccc2nc(NC3C4CCC3CC(OCc3c(-c5ccccc5OC(F)(F)F)noc3C3CC3)C4)cnc2c1` (stereo not shown) [Example 8-2]: the EC50 lay within 25 to 500 nM.

`NS(=O)(=O)c1ccc(NC2C3CCC2CC(OCc2c(-c4ccccc4OC(F)(F)F)noc2C2CC2)C3)nc1` (stereo not shown) [Example 8-3] gave an EC50 of 25 to 500 nM.

Consider `N#Cc1ccc(NC2C3CCC2CC(OCc2c(-c4ccccc4OC(F)(F)F)noc2C2CC2)C3)nc1` [Example 8-4, 6-(((1R,3r,5S,8s)-3-((5-cyclopropyl-3-(2-(trifluoromethoxy)phenyl)isoxazol-4-yl)methoxy)bicyclo[3.2.1]octan-8-yl)amino)nicotinonitrile], for which the EC50 is 25 to 500 nM.

In turn, `FC(F)(F)Oc1ccccc1-c1noc(C2CC2)c1COC1CC2CCC(C1)C2Nc1ccc(-c2nnn[nH]2)cn1` [Example 8-5, N-((1R,3r,5S,8s)-3-((5-cyclopropyl-3-(2-(trifluoromethoxy)phenyl)isoxazol-4-yl)methoxy)bicyclo[3.2.1]octan-8-yl)-5-(1H-tetrazol-5-yl)pyridin-2-amine] came in with an EC50 of 25 to 500 nM.

`FC(F)(F)Oc1ccccc1-c1noc(C2CC2)c1COC1CC2CCC(C1)C2Nc1nc2ccc(C(F)(F)F)cc2s1` (stereo not shown) [Example 8-6] had an EC50 of 25 to 500 nM.

On to `FC(F)(F)Oc1ccccc1-c1noc(C2CC2)c1COC1CC2CCC(C1)C2Nc1ncc(-c2ccccc2)cn1` [Example 8-7, N-((1R,3r,5S,8s)-3-((5-cyclopropyl-3-(2-(trifluoromethoxy)phenyl)isoxazol-4-yl)methoxy)bicyclo[3.2.1]octan-8-yl)-5-phenylpyrimidin-2-amine], for which the EC50 was more than 500 nM.

`FC(F)(F)Oc1ccccc1-c1noc(C2CC2)c1COC1CC2CCC(C1)C2Nc1nccc(-c2ccccc2)n1` (stereo not shown) [Example 8-8] showed an EC50 of more than 500 nM.

In turn, `O=C(O)c1ccc2c(S(=O)(=O)NC3C4CCC3CC(OCc3c(-c5ccccc5OC(F)(F)F)noc3C3CC3)C4)cccc2c1` [Example 9, 5-(N-((1R,3r,5S,8s)-3-((5-cyclopropyl-3-(2-(trifluoromethoxy)phenyl)isoxazol-4-yl)methoxy)bicyclo[3.2.1]octan-8-yl)sulfamoyl)-2-naphthoic acid] had an EC50 of less than 25 nM.

Turning to `COC(=O)c1ccc(S(=O)(=O)NC2C3CCC2CC(OCc2c(-c4ccccc4OC(F)(F)F)noc2C2CC2)C3)c2ccccc12` (stereo not shown) [Example 9-2], the EC50 was less than 25 nM.

The molecule `O=C(O)c1ccc(S(=O)(=O)NC2C3CCC2CC(OCc2c(-c4ccccc4OC(F)(F)F)noc2C2CC2)C3)c2ccccc12` (stereo not shown) [Example 9-3] gave an EC50 of 25 to 500 nM.

`COC(=O)c1cccc2c(S(=O)(=O)NC3C4CCC3CC(OCc3c(-c5ccccc5OC(F)(F)F)noc3C3CC3)C4)cccc12` (stereo not shown) [Example 9-4] yielded an EC50 of 25 to 500 nM.

Regarding `O=C(O)c1cccc2c(S(=O)(=O)NC3C4CCC3CC(OCc3c(-c5ccccc5OC(F)(F)F)noc3C3CC3)C4)cccc12` (stereo not shown) [Example 9-5], the EC50 is less than 25 nM.

Molecule `COC(=O)c1ccc2cc(S(=O)(=O)NC3C4CCC3CC(OCc3c(-c5ccccc5OC(F)(F)F)noc3C3CC3)C4)ccc2c1` (stereo not shown) [Example 9-6] displayed an EC50 of less than 25 nM.

The molecule `O=C(O)c1ccc2cc(S(=O)(=O)NC3C4CCC3CC(OCc3c(-c5ccccc5OC(F)(F)F)noc3C3CC3)C4)ccc2c1` (stereo not shown) [Example 9-7] displayed an EC50 of 25 to 500 nM.

For `O=C(O)c1cccc(S(=O)(=O)NC2C3CCC2CC(OCc2c(-c4ccccc4OC(F)(F)F)noc2C2CC2)C3)c1` (stereo not shown) [Example 9-8], the EC50 is more than 500 nM.

The molecule `O=C(O)c1ccccc1S(=O)(=O)NC1C2CCC1CC(OCc1c(-c3ccccc3OC(F)(F)F)noc1C1CC1)C2` (stereo not shown) [Example 9-9] registered an EC50 of more than 500 nM.

`O=S(=O)(NC1C2CCC1CC(OCc1c(-c3ccccc3OC(F)(F)F)noc1C1CC1)C2)c1ccccc1` (stereo not shown) [Example 9-10]: the EC50 was in the range of 25 to 500 nM.

Regarding `O=S(=O)(NC1C2CCC1CC(OCc1c(-c3ccccc3OC(F)(F)F)noc1C1CC1)C2)c1cccc2ccccc12` (stereo not shown) [Example 9-11], the EC50 was less than 25 nM.

`O=S(=O)(NC1C2CCC1CC(OCc1c(-c3ccccc3OC(F)(F)F)noc1C1CC1)C2)c1ccc2ccccc2c1` (stereo not shown) [Example 9-12] displayed an EC50 of less than 25 nM.

Molecule `O=S(=O)(NC1C2CCC1CC(OCc1c(-c3ccccc3OC(F)(F)F)noc1C1CC1)C2)c1cccc2cccnc12` (stereo not shown) [Example 9-13] yielded an EC50 of 25 to 500 nM.

Turning to `O=S(=O)(NC1C2CCC1CC(OCc1c(-c3ccccc3OC(F)(F)F)noc1C1CC1)C2)c1cccc2cnccc12` (stereo not shown) [Example 9-14], the EC50 is less than 25 nM.

`O=S(=O)(NC1C2CCC1CC(OCc1c(-c3ccccc3OC(F)(F)F)noc1C1CC1)C2)c1cccc2ccncc12` (stereo not shown) [Example 9-15] came in with an EC50 of less than 25 nM.

In turn, `O=S(=O)(NC1C2CCC1CC(OCc1c(-c3ccccc3OC(F)(F)F)noc1C1CC1)C2)c1cccc2ncccc12` (stereo not shown) [Example 9-16] registered an EC50 of less than 25 nM.

For the molecule `CC(C)Oc1ccc(S(=O)(=O)NC2C3CCC2CC(OCc2c(-c4ccccc4OC(F)(F)F)noc2C2CC2)C3)c2ccccc12` (stereo not shown) [Example 9-17], the EC50 lay in the range of 25 to 500 nM.

The molecule `CC(C)Oc1cc(CO)cc2sc(NC3C4CCC3CC(OCc3c(-c5ccccc5OC(F)(F)F)noc3C3CC3)C4)nc12` (stereo not shown) [Example 10-2] registered an EC50 of less than 25 nM.

For `CC(C)Oc1cc(C(C)(C)O)cc2sc(NC3C4CCC3CC(OCc3c(-c5ccccc5OC(F)(F)F)noc3C3CC3)C4)nc12` (stereo not shown) [Example 10], the EC50 is less than 25 nM.

`COC(=O)c1ccc2cc(SC3C4CCC3CC(OCc3c(-c5ccccc5OC(F)(F)F)noc3C3CC3)C4)ccc2c1` [Example 11, methyl 6-(((1R,3r,5S,8s)-3-((5-cyclopropyl-3-(2-(trifluoromethoxy)phenyl)isoxazol-4-yl)methoxy)bicyclo[3.2.1]octan-8-yl)thio)-2-naphthoate] yielded an EC50 of 25 to 500 nM.

`O=C(O)c1ccc2cc(SC3C4CCC3CC(OCc3c(-c5ccccc5OC(F)(F)F)noc3C3CC3)C4)ccc2c1` [Example 11-2, 6-(((1R,3r,5S,8s)-3-((5-cyclopropyl-3-(2-(trifluoromethoxy)phenyl)isoxazol-4-yl)methoxy)bicyclo[3.2.1]octan-8-yl)thio)-2-naphthoic acid] gave an EC50 of 25 to 500 nM.

The molecule `COC(=O)c1ccc2cc(S(=O)(=O)C3C4CCC3CC(OCc3c(-c5ccccc5OC(F)(F)F)noc3C3CC3)C4)ccc2c1` [Example 11-3, methyl 6-(((1R,3r,5S,8s)-3-((5-cyclopropyl-3-(2-(trifluoromethoxy)phenyl)isoxazol-4-yl)methoxy)bicyclo[3.2.1]octan-8-yl)sulfonyl)-2-naphthoate] yielded an EC50 of 25 to 500 nM.

For `O=C(O)c1ccc2cc(S(=O)(=O)C3C4CCC3CC(OCc3c(-c5ccccc5OC(F)(F)F)noc3C3CC3)C4)ccc2c1` (stereo not shown) [Example 11-4], the EC50 lay within 25 to 500 nM.

Molecule `CCOC(=O)c1cccc(SC2C3CCC2CC(OCc2c(-c4ccccc4OC(F)(F)F)noc2C2CC2)C3)c1` (stereo not shown) [Example 11-5] gave an EC50 of more than 500 nM.

The molecule `O=C(O)c1cccc(SC2C3CCC2CC(OCc2c(-c4ccccc4OC(F)(F)F)noc2C2CC2)C3)c1` (stereo not shown) [Example 11-6] displayed an EC50 of 25 to 500 nM.

`CCOC(=O)c1cccc(S(=O)(=O)C2C3CCC2CC(OCc2c(-c4ccccc4OC(F)(F)F)noc2C2CC2)C3)c1` (stereo not shown) [Example 11-7] registered an EC50 of 25 to 500 nM.

Usually EC50 stands for the concentration needed to bring the measured effect to its halfway point. Higher therefore signals lower potency in that assay.
